Results: ChEMBL document CHEMBL4308841, “Synthesis, in vitro antiproliferative activity, and kinase inhibitory effects of pyrazole-containing diarylureas and diarylamides” (Eur J Med Chem, 2018)

Columns and labels:
[1] = tested on: SK-OV-3; test: Growth inhibition of human SKOV3 cells assessed as cell growth at 0.1 uM incubated for 48 hrs by sulforhodamine B assay relative to control; format: functional; conditions: SK-OV-3, 48 h, read-out: Activity
[2] = tested on: SF-268; test: Growth inhibition of human SF268 cells incubated for 48 hrs by sulforhodamine B assay; format: functional, cell-based; conditions: SF-268, 48 h
[3] = tested on: UACC-257; test: Growth inhibition of human UACC257 cells assessed as cell growth at 1 uM incubated for 48 hrs by sulforhodamine B assay relative to control; format: functional; conditions: UACC-257, 48 h, read-out: Activity
[4] = tested on: 786-0; test: Growth inhibition of human 786-0 cells assessed as cell growth at 0.01 uM incubated for 48 hrs by sulforhodamine B assay relative to control; format: functional; conditions: 786-0, 48 h, read-out: Activity
[5] = tested on: HT-29; test: Growth inhibition of human HT-29 cells assessed as cell growth at 10 uM incubated for 48 hrs by sulforhodamine B assay relative to control; format: functional; conditions: HT-29, 48 h, read-out: Activity
[6] = tested on: SK-MEL-28; test: Growth inhibition of human SK-MEL-28 cells incubated for 48 hrs by sulforhodamine B assay; format: functional, cell-based; conditions: SK-MEL-28, 48 h
[7] = tested on: IGROV-1; test: Growth inhibition of human IGROV1 cells assessed as cell growth at 0.1 uM incubated for 48 hrs by sulforhodamine B assay relative to control; format: functional; conditions: IGROV-1, 48 h, read-out: Activity
[8] = tested on: CAKI-1; test: Growth inhibition of human Caki1 cells incubated for 48 hrs by sulforhodamine B assay; format: functional, cell-based; conditions: CAKI-1, 48 h
[9] = tested on: NCI-H522; test: Growth inhibition of human NCI-H522 cells assessed as cell growth at 10 uM incubated for 48 hrs by sulforhodamine B assay relative to control; format: functional; conditions: NCI-H522, 48 h, read-out: Activity
[10] = tested on: NCI/ADR-RES; test: Growth inhibition of human NCI/ADR-RES cells assessed as cell growth at 100 uM incubated for 48 hrs by sulforhodamine B assay relative to control; format: functional; conditions: read-out: Activity
[11] = tested on: BT-549; test: Growth inhibition of human BT549 cells assessed as cell growth at 0.01 uM incubated for 48 hrs by sulforhodamine B assay relative to control; format: functional; conditions: BT-549, 48 h, read-out: Activity
[12] = tested on: SK-MEL-5; test: Growth inhibition of human SK-MEL-5 cells assessed as cell growth at 100 uM incubated for 48 hrs by sulforhodamine B assay relative to control; format: functional; conditions: SK-MEL-5, 48 h, read-out: Activity
[13] = tested on: U-251; test: Growth inhibition of human U251 cells assessed as cell growth at 1 uM incubated for 48 hrs by sulforhodamine B assay relative to control; format: functional; conditions: U-251, 48 h, read-out: Activity
[14] = tested on: NCI/ADR-RES; test: Growth inhibition of human NCI/ADR-RES cells assessed as cell growth at 0.01 uM incubated for 48 hrs by sulforhodamine B assay relative to control; format: functional; conditions: read-out: Activity
[15] = tested on: RXF 393; test: Growth inhibition of human RXF393 cells assessed as cell growth at 0.01 uM incubated for 48 hrs by sulforhodamine B assay relative to control; format: functional; conditions: RXF 393, 48 h, read-out: Activity
[16] = tested on: SF-295; test: Growth inhibition of human SF295 cells assessed as cell growth at 1 uM incubated for 48 hrs by sulforhodamine B assay relative to control; format: functional; conditions: SF-295, 48 h, read-out: Activity
[17] = tested on: KM12; test: Growth inhibition of human KM12 cells incubated for 48 hrs by sulforhodamine B assay; format: functional, cell-based; conditions: KM12, 48 h
[18] = tested on: SK-MEL-2; test: Growth inhibition of human SK-MEL-2 cells assessed as cell growth at 10 uM incubated for 48 hrs by sulforhodamine B assay relative to control; format: functional; conditions: SK-MEL-2, 48 h, read-out: Activity
[19] = tested on: HCT-15; test: Growth inhibition of human HCT15 cells assessed as cell growth at 0.1 uM incubated for 48 hrs by sulforhodamine B assay relative to control; format: functional; conditions: HCT-15, 48 h, read-out: Activity
[20] = tested on: U-251; test: Growth inhibition of human U251 cells assessed as cell growth at 100 uM incubated for 48 hrs by sulforhodamine B assay relative to control; format: functional; conditions: U-251, 48 h, read-out: Activity
[21] = tested on: IGROV-1; test: Growth inhibition of human IGROV1 cells assessed as cell growth at 1 uM incubated for 48 hrs by sulforhodamine B assay relative to control; format: functional; conditions: IGROV-1, 48 h, read-out: Activity
[22] = tested on: KM12; test: Growth inhibition of human KM12 cells assessed as cell growth at 100 uM incubated for 48 hrs by sulforhodamine B assay relative to control; format: functional; conditions: KM12, 48 h, read-out: Activity
[23] = tested on: OVCAR-4; test: Growth inhibition of human OVCAR4 cells assessed as cell growth at 0.1 uM incubated for 48 hrs by sulforhodamine B assay relative to control; format: functional; conditions: OVCAR-4, 48 h, read-out: Activity
[24] = tested on: SK-MEL-28; test: Growth inhibition of human SK-MEL-28 cells assessed as cell growth at 1 uM incubated for 48 hrs by sulforhodamine B assay relative to control; format: functional; conditions: SK-MEL-28, 48 h, read-out: Activity
[25] = tested on: M14; test: Growth inhibition of human M14 cells assessed as cell growth at 0.01 uM incubated for 48 hrs by sulforhodamine B assay relative to control; format: functional; conditions: M14, 48 h, read-out: Activity
[26] = tested on: 786-0; test: Growth inhibition of human 786-0 cells assessed as cell growth at 0.1 uM incubated for 48 hrs by sulforhodamine B assay relative to control; format: functional; conditions: 786-0, 48 h, read-out: Activity
[27] = tested on: NCI-H522; test: Growth inhibition of human NCI-H522 cells assessed as cell growth at 1 uM incubated for 48 hrs by sulforhodamine B assay relative to control; format: functional; conditions: NCI-H522, 48 h, read-out: Activity
[28] = tested on: SK-OV-3; test: Growth inhibition of human SKOV3 cells assessed as cell growth at 100 uM incubated for 48 hrs by sulforhodamine B assay relative to control; format: functional; conditions: SK-OV-3, 48 h, read-out: Activity
[29] = tested on: K562; test: Growth inhibition of human K562 cells assessed as cell growth at 100 uM incubated for 48 hrs by sulforhodamine B assay relative to control; format: functional; conditions: K562, 48 h, read-out: Activity
[30] = tested on: SNB-75; test: Growth inhibition of human SNB75 cells assessed as cell growth at 1 uM incubated for 48 hrs by sulforhodamine B assay relative to control; format: functional; conditions: SNB-75, 48 h, read-out: Activity
[31] = tested on: T47D; test: Growth inhibition of human T47D cells assessed as cell growth at 0.1 uM incubated for 48 hrs by sulforhodamine B assay relative to control; format: functional; conditions: read-out: Activity
[32] = tested on: IGROV-1; test: Growth inhibition of human IGROV1 cells assessed as cell growth at 0.01 uM incubated for 48 hrs by sulforhodamine B assay relative to control; format: functional; conditions: IGROV-1, 48 h, read-out: Activity
[33] = read-out: LC50 (the source's name)
[34] = read-out: pLC50 (the source's name) (converted)

`COc1cc(Cl)cc(-c2nn(-c3cccc(NC(=O)c4cccc(C(F)(F)F)c4)c3)cc2-c2ccncc2)c1` was tested, and the growth at 0.1 µM [1] was 105%, the GI50 ([2]; read-out: GI50) was > 100 µM and the CC50 [2, 33] was > 100 µM. The TGI ([2]; read-out: TGI) was > 100 µM, the GI50 ([2]; read-out: pGI50 (converted)) was > 100 µM and the CC50 [2, 34] was > 100 µM. The TGI ([2]; read-out: pTGI (converted)) was > 100 µM, the growth at 1 µM [3] was 92% and the growth at 0.01 µM [4] was 99%. For the same compound, the growth at 10 µM [5] was 42.5%, the GI50 ([6]; read-out: GI50) was > 100 µM and the CC50 [6, 33] was > 100 µM. The TGI ([6]; read-out: TGI) was > 100 µM, the GI50 ([6]; read-out: pGI50 (converted)) was > 100 µM and the CC50 [6, 34] was > 100 µM. For the same compound, the TGI ([6]; read-out: pTGI (converted)) was > 100 µM, the growth at 0.1 µM [7] was 100% and the GI50 ([8]; read-out: GI50) was 3.58 µM. For the same compound, the CC50 [8, 33] was > 100 µM, the TGI ([8]; read-out: TGI) was > 100 µM and the GI50 ([8]; read-out: pGI50 (converted)) was 3.89 µM. The CC50 [8, 34] was > 100 µM, the TGI ([8]; read-out: pTGI (converted)) was > 100 µM and the growth at 10 µM [9] was 32.2%. For the same compound, the growth at 100 µM [10] was 31%, the growth at 0.01 µM [11] was 108% and the growth at 100 µM [12] was 20%. It also gave a growth at 1 µM [13] of 65%, a growth at 0.01 µM [14] of 103% and a growth at 0.01 µM [15] of 58%. The growth at 1 µM [16] was 57%, the GI50 ([17]; read-out: GI50) was 4.53 µM and the CC50 [17, 33] was > 100 µM. The TGI ([17]; read-out: TGI) was > 100 µM, the GI50 ([17]; read-out: pGI50 (converted)) was 4.57 µM and the CC50 [17, 34] was > 100 µM. For the same compound, the TGI ([17]; read-out: pTGI (converted)) was > 100 µM, the growth at 10 µM [18] was 56.4% and the growth at 0.1 µM [19] was 91%. It also gave a growth at 100 µM [20] of 41%, a growth at 1 µM [21] of 94% and a growth at 100 µM [22] of 28%. It also gave a growth at 0.1 µM [23] of 95%, a growth at 1 µM [24] of 92% and a growth at 0.01 µM [25] of 101%. For the same compound, the growth at 0.1 µM [26] was 97%, the growth at 1 µM [27] was 54% and the growth at 100 µM [28] was 78%. For the same compound, the growth at 100 µM [29] was 32%, the growth at 1 µM [30] was 70% and the growth at 0.1 µM [31] was 101%. The growth at 0.01 µM [32] was 94%.

`O=C(Nc1cccc(-n2cc(-c3ccncc3)c(-c3cc(O)cc(Cl)c3)n2)c1)c1ccc(N2CCOCC2)c(C(F)(F)F)c1` was tested, and the growth at 0.1 µM [1] was 102%, the GI50 ([2]; read-out: GI50) was 5.51 µM and the CC50 [2, 33] was > 100 µM. For the same compound, the TGI ([2]; read-out: TGI) was > 100 µM, the GI50 ([2]; read-out: pGI50 (converted)) was 8.51 µM and the CC50 [2, 34] was > 100 µM. For the same compound, the TGI ([2]; read-out: pTGI (converted)) was > 100 µM, the growth at 1 µM [3] was 54% and the growth at 0.01 µM [4] was 102%. The growth at 10 µM [5] was 16.9%, the GI50 ([6]; read-out: GI50) was 0.759 µM and the CC50 [6, 33] was > 100 µM. For the same compound, the TGI ([6]; read-out: TGI) was 32.7 µM, the GI50 ([6]; read-out: pGI50 (converted)) was 0.759 µM and the CC50 [6, 34] was > 100 µM. It also gave a TGI ([6]; read-out: pTGI (converted)) of 3.24 µM, a growth at 0.1 µM [7] of 103% and a GI50 ([8]; read-out: GI50) of 1.1 µM. For the same compound, the CC50 [8, 33] was > 100 µM, the TGI ([8]; read-out: TGI) was 60 µM and the GI50 ([8]; read-out: pGI50 (converted)) was 1.1 µM. For the same compound, the CC50 [8, 34] was > 100 µM, the TGI ([8]; read-out: pTGI (converted)) was 6.03 µM and the growth at 10 µM [9] was 18.8%. It also gave a growth at 100 µM [10] of 25%, a growth at 0.01 µM [11] of 100% and a growth at 100 µM [12] of -72%. For the same compound, the growth at 1 µM [13] was 51%, the growth at 0.01 µM [14] was 101% and the growth at 0.01 µM [15] was 91%. For the same compound, the growth at 1 µM [16] was 39%, the GI50 ([17]; read-out: GI50) was 1.21 µM and the CC50 [17, 33] was > 100 µM. The TGI ([17]; read-out: TGI) was > 100 µM, the GI50 ([17]; read-out: pGI50 (converted)) was 1.2 µM and the CC50 [17, 34] was > 100 µM. The TGI ([17]; read-out: pTGI (converted)) was > 100 µM, the growth at 10 µM [18] was 22.9% and the growth at 0.1 µM [19] was 94%. It also gave a growth at 100 µM [20] of -69%, a growth at 1 µM [21] of 91% and a growth at 100 µM [22] of 4%. For the same compound, the growth at 0.1 µM [23] was 103%, the growth at 1 µM [24] was 44% and the growth at 0.01 µM [25] was 95%. For the same compound, the growth at 0.1 µM [26] was 94%, the growth at 1 µM [27] was 40% and the growth at 100 µM [28] was 19%. The growth at 100 µM [29] was -24%, the growth at 1 µM [30] was 45% and the growth at 0.1 µM [31] was 98%. It also gave a growth at 0.01 µM [32] of 93%.
